From patent US6872690B2, “Herbicidal 2-alkynyl-pyri (mi) dines” (WYETH, priority 2001, dated 2005)

How the values were obtained:
Assay type in all cases: in vivo
Galium aparine [1] = assay: Post-emergence herbicidal activity test; settings: 2-4 weeks after treatment
Summary of the method: (§1)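 Injury is scored on a rating scale 2 to 4 weeks after spraying. Seedlings receive test compound formulated from acetone solutions diluted with water, applied at about 0.025 to 0.4 kg per hectare per pot, and are then grown on greenhouse benches.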

Cassia obtusifolia [2] = assay: Post-emergence herbicidal activity test; settings: 2-4 weeks after treatment
Summary of the method: as §1

Ambrosia artemisifolia [3] = assay: Post-emergence herbicidal activity test; settings: 2-4 weeks after treatment
Summary of the method: as §1

Setaria viridis [4] = assay: Post-emergence herbicidal activity test; settings: 2-4 weeks after treatment
Summary of the method: as §1

Matricaria inodora [5] = assay: Post-emergence herbicidal activity test; settings: 2-4 weeks after treatment
Summary of the method: as §1

Stellaria media = assay: Post-emergence herbicidal activity test; settings: 2-4 weeks after treatment
Summary of the method: as §1

Glycine max [6] = assay: Post-emergence herbicidal activity test; settings: 0.100 kg/ha, 2-4 weeks after treatment
Summary of the method: as §1

Echinochloa crus-galli [7] = assay: Post-emergence herbicidal activity test; settings: 2-4 weeks after treatment
Summary of the method: as §1

Alopecurus myosuroides [8] = assay: Post-emergence herbicidal activity test; settings: 2-4 weeks after treatment
Summary of the method: as §1

Abutilon theophrasti [9] = assay: Post-emergence herbicidal activity test; settings: 2-4 weeks after treatment
Summary of the method: as §1

Digitaria sanguinalis [10] = assay: Post-emergence herbicidal activity test; settings: 2-4 weeks after treatment
Summary of the method: as §1

Ipomoea hederacea [11] = assay: Post-emergence herbicidal activity test; settings: 2-4 weeks after treatment
Summary of the method: as §1

Zea mays [12] = assay: Post-emergence herbicidal activity test; settings: 2-4 weeks after treatment
Summary of the method: as §1

Orysa sativa [13] = assay: Post-emergence herbicidal activity test; settings: 2-4 weeks after treatment
Summary of the method: as §1

Triticum aestivum [14] = assay: Post-emergence herbicidal activity test; settings: 2-4 weeks after treatment
Summary of the method: as §1

Galium aparine [15] = assay: Pre-emergence test; settings: 3 weeks after treatment
Summary of the method: (§2)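 Seeds sown in horticultural loam; compound in acetone containing 0.4% wetting agent, then diluted in water; formulation sprayed onto the soil surface at 900 L/ha; rates of 0.013, 0.025, 0.100 and 0.400 kg/ha; pots rated after 2–4 weeks against untreated controls.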

Cassia obtusifolia [16] = assay: Pre-emergence test; settings: 3 weeks after treatment
Summary of the method: as §2

Ambrosia artemisifolia [17] = assay: Pre-emergence test; settings: 3 weeks after treatment
Summary of the method: as §2

Setaria viridis [18] = assay: Pre-emergence test; settings: 3 weeks after treatment
Summary of the method: as §2

Matricaria inodora [19] = assay: Pre-emergence test; settings: 3 weeks after treatment
Summary of the method: as §2

Lamium purpureum = assay: Pre-emergence test; settings: 3 weeks after treatment
Summary of the method: as §2

Glycine max [20] = assay: Pre-emergence test; settings: 3 weeks after treatment
Summary of the method: as §2

Echinochloa crus-galli [21] = assay: Pre-emergence test; settings: 3 weeks after treatment
Summary of the method: as §2

Alopecurus myosuroides [22] = assay: Pre-emergence test; settings: 3 weeks after treatment
Summary of the method: as §2

Abutilon theophrasti [23] = assay: Pre-emergence test; settings: 3 weeks after treatment
Summary of the method: as §2

Digitaria sanguinalis [24] = assay: Pre-emergence test; settings: 3 weeks after treatment
Summary of the method: as §2

Ipomoea hederacea [25] = assay: Pre-emergence test; settings: 3 weeks after treatment
Summary of the method: as §2

Zea mays [26] = assay: Pre-emergence test; settings: 3 weeks after treatment
Summary of the method: as §2

Orysa sativa [27] = assay: Pre-emergence test; settings: 3 weeks after treatment
Summary of the method: as §2

Triticum aestivum [28] = assay: Pre-emergence test; settings: 3 weeks after treatment
Summary of the method: as §2

Cc1cc(Oc2cc(C(F)(F)F)nn2C)nc(C#Cc2ccccc2)n1 [Example 161]
5 (5-Definite injury): Post-emergence application AMBEL (Ambrosia artemisifolia [3]; 0.100 kg/ha) | Post-emergence application AMBEL (Ambrosia artemisifolia [3]; 0.400 kg/ha) | Post-emergence application ABUTH (Abutilon theophrasti [9]; 0.400 kg/ha) | Assessment (pre-emergence application) LAMPU (Lamium purpureum; 0.100 kg/ha)
0 (0-No effect): Assessment (pre-emergence application) CASOB (Cassia obtusifolia [16]; 0.025 kg/ha) | Assessment (pre-emergence application) CASOB (Cassia obtusifolia [16]; 0.100 kg/ha) | Assessment (pre-emergence application) CASOB (Cassia obtusifolia [16]; 0.400 kg/ha) | Assessment (pre-emergence application) LAMPU (Lamium purpureum; 0.025 kg/ha) | Assessment (pre-emergence application) GLXMA (Glycine max [20]; 0.025 kg/ha) | Assessment (pre-emergence application) GLXMA (Glycine max [20]; 0.100 kg/ha) | Assessment (pre-emergence application) ECHCG (Echinochloa crus-galli [21]; 0.025 kg/ha) | Assessment (pre-emergence application) IPOHE (Ipomoea hederacea [25]; 0.025 kg/ha) | Assessment (pre-emergence application) ZEAMX (Zea mays [26]; 0.025 kg/ha) | Assessment (pre-emergence application) ZEAMX (Zea mays [26]; 0.100 kg/ha) | Assessment (pre-emergence application) ZEAMX (Zea mays [26]; 0.400 kg/ha) | Assessment (pre-emergence application) ORYSA (Orysa sativa [27]; 0.025 kg/ha) | Assessment (pre-emergence application) TRZWA (Triticum aestivum [28]; 0.025 kg/ha) | Assessment (pre-emergence application) TRZWA (Triticum aestivum [28]; 0.100 kg/ha) | Assessment (pre-emergence application) TRZWA (Triticum aestivum [28]; 0.400 kg/ha)
1 (1-Trace effect): Post-emergence application CASOB (Cassia obtusifolia [2]; 0.100 kg/ha) | Post-emergence application ECHCG (Echinochloa crus-galli [7]; 0.100 kg/ha) | Assessment (pre-emergence application) GALAP (Galium aparine [15]; 0.025 kg/ha) | Assessment (pre-emergence application) GALAP (Galium aparine [15]; 0.100 kg/ha) | Assessment (pre-emergence application) GLXMA (Glycine max [20]; 0.400 kg/ha) | Assessment (pre-emergence application) ECHCG (Echinochloa crus-galli [21]; 0.100 kg/ha) | Assessment (pre-emergence application) ALOMY (Alopecurus myosuroides [22]; 0.100 kg/ha) | Assessment (pre-emergence application) DIGSA (Digitaria sanguinalis [24]; 0.025 kg/ha) | Assessment (pre-emergence application) ORYSA (Orysa sativa [27]; 0.100 kg/ha) | Assessment (pre-emergence application) ORYSA (Orysa sativa [27]; 0.400 kg/ha)
4 (4-Injury): Post-emergence application SETVI (Setaria viridis [4]; 0.100 kg/ha) | Post-emergence application MATIN (Matricaria inodora [5]; 0.400 kg/ha) | Post-emergence application STEME (Stellaria media; 0.400 kg/ha) | Post-emergence application ABUTH (Abutilon theophrasti [9]; 0.100 kg/ha) | Assessment (pre-emergence application) SETVI (Setaria viridis [18]; 0.100 kg/ha) | Assessment (pre-emergence application) MATIN (Matricaria inodora [19]; 0.100 kg/ha) | Assessment (pre-emergence application) ABUTH (Abutilon theophrasti [23]; 0.100 kg/ha) | Assessment (pre-emergence application) ABUTH (Abutilon theophrasti [23]; 0.400 kg/ha)
2 (2-Slight effect): Post-emergence application STEME (Stellaria media; 0.100 kg/ha) | Post-emergence application ECHCG (Echinochloa crus-galli [7]; 0.400 kg/ha) | Post-emergence application ALOMY (Alopecurus myosuroides [8]; 0.100 kg/ha) | Post-emergence application DIGSA (Digitaria sanguinalis [10]; 0.100 kg/ha) | Post-emergence application DIGSA (Digitaria sanguinalis [10]; 0.400 kg/ha) | Post-emergence application ZEAMX (Zea mays [12]; 0.100 kg/ha) | Post-emergence application ZEAMX (Zea mays [12]; 0.400 kg/ha) | Post-emergence application ORYSA (Orysa sativa [13]; 0.100 kg/ha) | Post-emergence application TRZWA (Triticum aestivum [14]; 0.100 kg/ha) | Post-emergence application TRZWA (Triticum aestivum [14]; 0.400 kg/ha) | Assessment (pre-emergence application) MBEL (Ambrosia artemisifolia [17]; 0.025 kg/ha) | Assessment (pre-emergence application) MBEL (Ambrosia artemisifolia [17]; 0.100 kg/ha) | Assessment (pre-emergence application) SETVI (Setaria viridis [18]; 0.025 kg/ha) | Assessment (pre-emergence application) ABUTH (Abutilon theophrasti [23]; 0.025 kg/ha)
8 (8-Approaching complete kill): Post-emergence application GALAP (Galium aparine [1]; 0.400 kg/ha) | Assessment (pre-emergence application) MATIN (Matricaria inodora [19]; 0.400 kg/ha)
7 (7-Good herbicidal effect): Post-emergence application GALAP (Galium aparine [1]; 0.100 kg/ha) | Assessment (pre-emergence application) SETVI (Setaria viridis [18]; 0.400 kg/ha) | Assessment (pre-emergence application) LAMPU (Lamium purpureum; 0.400 kg/ha)
3 (3-Moderate effect): Post-emergence application CASOB (Cassia obtusifolia [2]; 0.400 kg/ha) | Post-emergence application MATIN (Matricaria inodora [5]; 0.100 kg/ha) | Post-emergence application GLXMA (Glycine max [6]) | Post-emergence application ALOMY (Alopecurus myosuroides [8]; 0.400 kg/ha) | Post-emergence application ORYSA (Orysa sativa [13]; 0.400 kg/ha) | Assessment (pre-emergence application) GALAP (Galium aparine [15]; 0.400 kg/ha) | Assessment (pre-emergence application) MATIN (Matricaria inodora [19]; 0.025 kg/ha) | Assessment (pre-emergence application) ECHCG (Echinochloa crus-galli [21]; 0.400 kg/ha) | Assessment (pre-emergence application) ALOMY (Alopecurus myosuroides [22]; 0.400 kg/ha) | Assessment (pre-emergence application) DIGSA (Digitaria sanguinalis [24]; 0.100 kg/ha) | Assessment (pre-emergence application) IPOHE (Ipomoea hederacea [25]; 0.100 kg/ha) | Assessment (pre-emergence application) IPOHE (Ipomoea hederacea [25]; 0.400 kg/ha)
9 (9-Complete kill): Post-emergence application IPOHE (Ipomoea hederacea [11]; 0.100 kg/ha) | Post-emergence application IPOHE (Ipomoea hederacea [11]; 0.400 kg/ha) | Assessment (pre-emergence application) ALOMY (Alopecurus myosuroides [22]; 0.025 kg/ha) | Assessment (pre-emergence application) DIGSA (Digitaria sanguinalis [24]; 0.400 kg/ha)
6 (6-Herbicidal effect): Post-emergence application SETVI (Setaria viridis [4]; 0.400 kg/ha)
